pIC50: −log10 of the molar value. In brackets after ≈: the same amount, converted by molar mass.
Assays:
[1] = Stability to human liver microsomes; type: in vitro ADME; details: 1 μM compound, 60 min, 37° C., 0.5 mg/mL protein
Description: (§1) (a) Stability of the compounds to human and mouse microsomes. Test compounds (1 μM) were incubated at 37° C. with pooled human or CD-1 mouse liver microsome preparations (0.5 mg/mL final protein concentration) and an NADPH regenerating system (MgCl2, 3.3 mM; G6P, 3.3 mM; G6PD, 0.4 U/mL; NADP+, 1.3 mM) in phosphate buffer (75 mM, pH 7.4), with a final volume of 200 μL. The compounds were dissolved in DMSO such that the final DMSO concentration was 0.5%. Reactions were stopped at 0 and 60 min by the addition of MeCN (100 μL) containing 0.2 μM metoprolol as an internal standard. Samples were diluted 10× and centrifuged prior to analysis by LC-MS/MS using electrospray ionization and SRM monitoring using a gradient LC method. LC peak areas were integrated and expressed as analyte/IS peak area ratios (PAR), and a mean value for each time point was calculated from the duplicates. The percent remaining value was calculated as: % remaining=100×(Mean PART60/Mean PART0).

M. tuberculosis Erdman = test: In vivo mouse acute TB infection assay; design: species or system BALB/c mice; details: for In vivo efficacy vs PA-824: 100 mg/kg orally daily 5 days a week for 3 weeks, ratio of average lung CFU reduction to that of PA-824
[2] = test system: Axenically grown L. donovani amastigotes (MHOM-ET-67/L82); test: Axenic Leishmania donovani assay; type: cell-based; details: 70 h incubation, read-out: IC50 L. donovani axen
Description: (§2) (c) Antiprotozoal screening. Compounds were evaluated for their activities against both Trypanosoma cruzi amastigotes and Leishmania donovani amastigotes (free or encapsulated in macrophages), according to the following protocols:
(ii) Axenic Leishmania donovani assay. Axenically grown L. donovani amastigotes (MHOM-ET-67/L82) from a healthy culture in log phase were seeded at a density of 1×10^6/mL medium (SM, pH 5.4 plus 10% heat inactivated fetal calf serum) in 96-well microtitre plates (Costar™) and incubated at 37° C. (5% CO2) for 70 h in either medium alone or in the presence of serial (3-fold) dilutions of test compounds (initially prepared as 10 mg/mL stock solutions in DMSO and diluted into medium). Miltefosin was employed as a standard in each assay. After incubation, Resazurin fluorescent dye was added to each well, and incubation was continued for an additional 2 h. The IC50 values were determined from measurements of the fluorescence data.

[3] = test system: Trypanosoma cruzi amastigotes (Tulahuen C2C4 strain); test: Trypanosoma cruzi assay in infected L-6 cells; type: cell-based; details: L6, 96 h incubation, read-out: IC50 T. cruzi
Description: as §2
(i) Trypanosoma cruzi assay. L-6 cells (2×10^3) in medium (100 μL of RPMI 1640 supplemented with 2 mM L-glutamine plus 10% heat inactivated fetal calf serum) were seeded in 96-well microtitre plates (Costar™) and incubated at 37° C. (5% CO2) for 1d. A suspension (50 μL) of Trypanosoma cruzi trypomastigotes (5×10^3 of Tulahuen C2C4 strain, containing the β-galactosidase gene) was added, and the cells were incubated at 37° C. (5% CO2) for a further 48 h to establish the infection. The medium was removed and replaced by fresh medium and the infected cells were then incubated at 37° C. (5% CO2) for 96 h in either medium alone or in the presence of serial (3-fold) dilutions of test compounds (initially prepared as 10 mg/mL stock solutions in DMSO and diluted into medium). Benznidazole was employed as a standard in each assay. Following incubation, chlorophenol red glycoside (100 mM) in 0.1% Nonidet P40/PBS (50 μL) was added, and (after 6 h) the absorbance at 540 nm was measured and used to calculate the IC50 values.

VERO cells (CCL-81) = test: Mammalian cell cytotoxicity assay (tetrazolium dye); type: cell-based; details: Chlorocebus sabaeus, 72 h exposure, read-out: IC50 VERO
Description: (b) Mammalian cell cytotoxicity assay. This was assessed against VERO cells (CCL-81, American Type Culture Collection) in a 72 h exposure, using a tetrazolium dye assay (Falzari et al., 2005).

[4] = test system: L. donovani amastigotes (MHOM-ET-67/L82) in mouse macrophages; test: Leishmania donovani infected macrophage assay; type: cell-based; details: 96 h incubation, read-out: IC50 L. donovani macro
Description: as §2
(iii) Leishmania donovani infected macrophage assay. Freshly harvested mouse macrophages in medium (RPMI 1640 plus 10% heat inactivated fetal calf serum) were incubated at 37° C. (5% CO2) for 24 h and then infected (1:3 macrophages to amastigotes) with an axenic L. donovani amastigote culture (MHOM-ET-67/L82) in medium (SM, pH 5.4 plus 10% heat inactivated fetal calf serum). The infected macrophages were seeded at a density of 1.2×10^6/mL (by diluting in RPMI+10% FCS) in 16-well slides (Lab-tek™) and incubated at 37° C. (5% CO2) for 24 h. The medium was removed and replaced by fresh medium (RPMI 1640+10% FCS), and this was repeated following mixing. The infected macrophages were then incubated at 37° C. (5% CO2) for 96 h in either medium alone or in the presence of serial (3-fold) dilutions of test compounds (initially prepared as 10 mg/mL stock solutions in DMSO and diluted into medium). Miltefosin was employed as a standard in each assay. […], the slides were fixed (5 min in 100% MeOH) and stained (10% Giemsa, 10 min). The ratio of infected to uninfected macrophages was determined by microscopic examination, and the IC50 values were then calculated by linear regression analysis.

[5] = Stability to mouse liver microsomes; type: in vitro ADME, CD-1 mouse; details: 1 μM compound, 60 min, 37° C., 0.5 mg/mL protein
Description: as §1

Compound	Microsomes (% remaining) Human [1] [%]	In vivo efficacy vs PA-824 (M. tuberculosis Erdman)	log reductions in CFU (M. tuberculosis Erdman; lungs, vs vehicle alone-treated mice, day 31, 'up to')	IC50 [2] [µg/mL]	IC50 [3] [µg/mL]	pIC50 (VERO cells (CCL-81))	melting point [°C]	IC50 [4] [µg/mL]	Microsomes (% remaining) Mouse [5] [%]
O=[N+]([O-])c1cn2c(n1)OC[C@@H](OCc1ccc(OC(F)(F)F)cc1)C2 [PA-824, reference compound]	82	1.00	2.5-3 log	–	–	–	–	–	–
CC1(COc2ccc(-c3ccc(OC(F)(F)F)cc3)cc2)Cn2cc([N+](=O)[O-])nc2O1 (stereo not shown) [Compound 12, 2-methyl-6-nitro-2-({[4′-(trifluoromethoxy)[1,1′-biphenyl]-4-yl]oxy}methyl)-2,3-dihydroimidazo[2,1-b][1,3]oxazole]	–	112	–	0.016 (≈ 0.0368 µM)	9.4 (≈ 21.6 µM)	< 3.89	209 to 211	0.74 (≈ 1.7 µM)	–
O=[N+]([O-])c1cn2c(n1)OCC(COCc1ccc(OC(F)(F)F)cc1)C2 (stereo not shown) [Compound 72, 2-nitro-6-({[4-(trifluoromethoxy)benzyl]oxy}methyl)-6,7-dihydro-5H-imidazo[2,1-b][1,3]oxazine]	71	–	–	0.089 (≈ 0.238 µM)	0.62 (≈ 1.66 µM)	4.34	92 to 93	0.55 (≈ 1.47 µM)	41

From patent US8293734B2, “Nitroimidazooxazine and nitroimidazooxazole analogues and their uses” (priority 2009, dated 2012)
